Measured values from paper PMC9582125, “Two triphosphate tunnel metalloenzymes from apple exhibit adenylyl cyclase activity” (Frontiers in Plant Science, 2022).

Biological target: T1, HpAC1 (Hippeastrum hybrid cultivar, UniProt E1AQY1)
T1 construct: gene AC1
T1 sequence (E1AQY1 1-206): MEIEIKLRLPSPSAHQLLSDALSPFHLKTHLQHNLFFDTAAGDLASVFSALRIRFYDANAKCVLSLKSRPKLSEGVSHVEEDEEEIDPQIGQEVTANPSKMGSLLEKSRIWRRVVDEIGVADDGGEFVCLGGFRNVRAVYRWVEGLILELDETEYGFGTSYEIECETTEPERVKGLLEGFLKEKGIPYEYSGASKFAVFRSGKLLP
Experiment: malachite green phosphate release
Type: biochemical
Details: divalent cation, pH 7.5, 30 °C; hydrolysis

SMILES: O=P(O)(O)OP(=O)(O)OP(=O)(O)O [PPPi]
- malachite green phosphate release: HpAC1 could hydrolyze both organic and inorganic triphosphates like MdTTM2
